Source: patent publication US20250163119A1, “COMPOUNDS FOR THE TREATMENT OF DIABETES OR OBESITY” (Eli Lilly and Company, priority 2023, published 2025)
Several values for one entry are separate records, joined by “and”; a condition that tells them apart may be missing. Equal entries are not always repeated. Where two headings read alike, the source gives them in different places. Values belong to the substance of their own block, whether it stands above or below them. *1 amine or outer side, *2 acyl side, *3 side chain or, on linkers, in order; H or OH if unused. Side-chain parts run from the residue outwards. [ ]: non-standard residue; d: D form. The star is where a group is joined. C20 diacid = O=C(O)CCCCCCCCCCCCCCCCCCC(=O)*; γGlu = O=C(O)[C@H](CCC(=O)[*:2])N[*:1]; εLys = N[C@@H](CCCCN[*:1])C(=O)[*:2]; pGlu = O=C1CC[C@@H](C(=O)O)N1; αMeL = CC(C)C[C@](C)(N)C(=O)O; AEEA = NCCOCCOCC(=O)O; Aib = CC(C)(N)C(=O)O

How the values were obtained:
human CRHR2 = molecular target: T1, human CRHR2 (Homo sapiens, UniProt Q13324); experiment: Human CRHR2 cAMP assay (HTRF) in HEK293 cells stably expressing human CRHR2; type: cell-based; settings: HEK293 cells overexpressing human CRHR2; relative EC50, maximum 10 nM human UCN2; mean ± SE; read-out: hCRHR2 cAMP EC50 (pM, ± SE)
T1 construct: expressed in transfected cells
T1 sequence (Q13324 1-438 isoform Q13324-2): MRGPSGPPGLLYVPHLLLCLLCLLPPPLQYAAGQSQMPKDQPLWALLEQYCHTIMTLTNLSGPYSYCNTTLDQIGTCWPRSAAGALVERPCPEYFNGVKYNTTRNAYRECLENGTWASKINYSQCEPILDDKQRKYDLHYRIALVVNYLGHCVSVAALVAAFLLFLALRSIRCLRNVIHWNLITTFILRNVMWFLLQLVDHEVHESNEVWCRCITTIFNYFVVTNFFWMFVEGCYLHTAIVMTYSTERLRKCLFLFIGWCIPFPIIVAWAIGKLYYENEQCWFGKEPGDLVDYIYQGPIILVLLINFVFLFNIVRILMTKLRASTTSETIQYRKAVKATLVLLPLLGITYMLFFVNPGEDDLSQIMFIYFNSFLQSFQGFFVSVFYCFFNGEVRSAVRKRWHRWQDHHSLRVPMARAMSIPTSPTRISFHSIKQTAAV
Summary of the method: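 Gs-coupled receptor activation was followed as intracellular cAMP in stably transfected HEK293 cells, 25,000 (CRHR1) or 5,000 (CRHR2) per well, with 0.25 mM IBMX present. Stimulation lasted 1 h at 37° C for CRHR1 and 30 min at room temperature for CRHR2.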

[1] = Pharmacokinetics in Cynomolgus monkeys, single subcutaneous or intravenous dose; type: in vivo
Method: Plasma concentrations of compounds were determined by LC/MS methods. For each assay, the compound and an internal standard (IS), were extracted from 100% mouse, rat, pig, or monkey plasma (70 μL) using Isopropanol-Methanol. Two distinct layers were formed upon centrifugation with the compound and the IS located in the supernatant layer. An aliquot of the supernatant (150 μL) was transferred to a Waters Sirocco Protein Precipitation Plate. The supernatant was eluted using a positive pressure manifold. The supernatant was mixed with 100-2 Water-Formic acid (400 μL) in a pretreated Sep-Pak tC18 SPE plate and eluted to waste. The peptide and IS were eluted with Acetonitrile-Formic acid (100 μL) in 2 steps (50 μL each step). The elution (40 μL) from SPE plate was mixed with diluent solution (1.875 μL 5× invitrosol and 3.125 μL 1% formic acid in water, 80 μL). A final sample (10 μl) was loaded onto a Xselect CSH C18 IS column (3.5 μm 2.1×20 mm). The column effluent was directed into a Thermo Fisher Scientific Orbitrap (Exploris 240) mass spectrometer for detection and quantitation.
Male and female Cynomolgus monkeys were administered a single subcutaneous dose or intravenous dose (183 to 190 nmol/kg) of compound in 40 mM Tris-HCl 5% D-mannitol (pH 8) at a volume of 0.5 mL/kg. Blood was collected from each animal at 0.5, 3, 6, 24, 48, 72, 96, 168, 240, 336, 408, and 504 hours postdose for pharmacokinetic characterization.

[2] = both sexes, cynomolgus monkey, plasma, iv, 187 nmol/kg, single intravenous dose 187 nmol/kg, Mean
[3] = both sexes, cynomolgus monkey, plasma, iv, 187 nmol/kg, single intravenous dose 187 nmol/kg, individual animal
[4] = single intravenous dose 187 nmol/kg, individual animal
[5] = single subcutaneous dose 187 nmol/kg, individual animal
[6] = both sexes, cynomolgus monkey, plasma, iv, 183 nmol/kg, single intravenous dose 183 nmol/kg, Mean
[7] = both sexes, cynomolgus monkey, plasma, iv, 183 nmol/kg, single intravenous dose 183 nmol/kg, individual animal
[8] = single intravenous dose 183 nmol/kg, individual animal
[9] = single subcutaneous dose 183 nmol/kg, individual animal
[10] = both sexes, cynomolgus monkey, plasma, iv, 190 nmol/kg, single intravenous dose 190 nmol/kg, Mean
[11] = both sexes, cynomolgus monkey, plasma, iv, 190 nmol/kg, single intravenous dose 190 nmol/kg, individual animal
[12] = single intravenous dose 190 nmol/kg, individual animal
[13] = single subcutaneous dose 190 nmol/kg, individual animal

- EC50 (human CRHR2): 9.3 ± 1.1 pM
- clearance [1, 2]: 14.7 mL/day/kg
- half-life [1, 2]: 91.6 h
- clearance [1, 3]: 12.2 mL/day/kg
- half-life [1, 3]: 91.9 h
- half-life ([1]; both sexes, cynomolgus monkey, plasma, sc, 187 nmol/kg, single subcutaneous dose 187 nmol/kg, Mean): 81.9 h
- CL/F ([1]; both sexes, cynomolgus monkey, plasma, sc, 187 nmol/kg, single subcutaneous dose 187 nmol/kg, Mean, read-out: CL/F (converted)): 19.5 mL/day/kg
- Tmax ([1]; both sexes, cynomolgus monkey, plasma, sc, 187 nmol/kg, single subcutaneous dose 187 nmol/kg, Mean, read-out: Tmax): 48 h
- half-life ([1]; both sexes, cynomolgus monkey, plasma, sc, 187 nmol/kg, single subcutaneous dose 187 nmol/kg, individual animal): 72 h
- CL/F ([1]; both sexes, cynomolgus monkey, plasma, sc, 187 nmol/kg, single subcutaneous dose 187 nmol/kg, individual animal, read-out: CL/F (converted)): 20.8 mL/day/kg
- Tmax ([1]; both sexes, cynomolgus monkey, plasma, sc, 187 nmol/kg, single subcutaneous dose 187 nmol/kg, individual animal, read-out: Tmax): 48 h
- AUC0-inf ([1]; both sexes, cynomolgus monkey, plasma, sc, single subcutaneous dose 187 nmol/kg, Mean, read-out: AUC0-inf): 238 µM·h
- Cmax ([1]; both sexes, cynomolgus monkey, plasma, sc, single subcutaneous dose 187 nmol/kg, Mean, read-out: Cmax): 1180 nM
- AUC0-inf ([1]; both sexes, cynomolgus monkey, plasma, single intravenous dose 187 nmol/kg, Mean, read-out: AUC0-inf): 315 µM·h
- C0 ([1]; both sexes, cynomolgus monkey, plasma, single intravenous dose 187 nmol/kg, Mean, read-out: C0): 4600 nM
- AUC0-inf [1, 4]: 369 µM·h and 261 µM·h
- C0 [1, 4]: 5040 nM and 4150 nM
- CL [1, 4]: 17.2 mL/day/kg
- T1/2 [1, 4]: 91.3 h
- AUC0-inf [1, 5]: 221 µM·h and 255 µM·h
- CL/F [1, 5]: 18.1 mL/day/kg
- Cmax [1, 5]: 1100 nM and 1260 nM
- T1/2 [1, 5]: 91.7 h
Substance: Ac-GSPSIVTS[αMeL]DVPT[Aib][αMeL]LQKILEQERAEKARQQAK([γGlu-AEEA-εLys-C20 diacid])EAAEILAQV-NH2 [SEQ ID NO: 1, Ac-GSPSIVTS αMeL DVPT Aib αMeL LQKILEQERAEKARQQAK(γE-(2-[2-(2-Amino-ethoxy)-ethoxy]-acetyl)-ϵK-CO-(CH2)18-CO2H)EAAEILAQV-NH2]

- EC50 (human CRHR2): 11.3 ± 3 pM
- clearance [1, 6]: 9.89 mL/day/kg
- half-life [1, 6]: 98.1 h
- clearance [1, 7]: 9.41 mL/day/kg
- half-life [1, 7]: 83.1 h
- half-life ([1]; both sexes, cynomolgus monkey, plasma, sc, 183 nmol/kg, single subcutaneous dose 183 nmol/kg, Mean): 136 h
- CL/F ([1]; both sexes, cynomolgus monkey, plasma, sc, 183 nmol/kg, single subcutaneous dose 183 nmol/kg, Mean, read-out: CL/F (converted)): 12.9 mL/day/kg
- Tmax ([1]; both sexes, cynomolgus monkey, plasma, sc, 183 nmol/kg, single subcutaneous dose 183 nmol/kg, Mean, read-out: Tmax): 60 h
- CL/F ([1]; both sexes, cynomolgus monkey, plasma, sc, 183 nmol/kg, single subcutaneous dose 183 nmol/kg, individual animal, read-out: CL/F (converted)): 12.5 mL/day/kg
- Tmax ([1]; both sexes, cynomolgus monkey, plasma, sc, 183 nmol/kg, single subcutaneous dose 183 nmol/kg, individual animal, read-out: Tmax): 72 h
- AUC0-inf ([1]; both sexes, cynomolgus monkey, plasma, sc, single subcutaneous dose 183 nmol/kg, Mean, read-out: AUC0-inf): 365 µM·h
- Cmax ([1]; both sexes, cynomolgus monkey, plasma, sc, single subcutaneous dose 183 nmol/kg, Mean, read-out: Cmax): 2000 nM
- AUC0-inf ([1]; both sexes, cynomolgus monkey, plasma, single intravenous dose 183 nmol/kg, Mean, read-out: AUC0-inf): 446 µM·h
- C0 ([1]; both sexes, cynomolgus monkey, plasma, single intravenous dose 183 nmol/kg, Mean, read-out: C0): 4740 nM
- AUC0-inf [1, 8]: 467 µM·h and 424 µM·h
- C0 [1, 8]: 4160 nM and 5320 nM
- CL [1, 8]: 10.3 mL/day/kg
- T1/2 [1, 8]: 113 h
- AUC0-inf [1, 9]: 387 µM·h and 342 µM·h
- CL/F [1, 9]: 13.2 mL/day/kg
- Cmax [1, 9]: 1720 nM and 2280 nM
- T1/2 [1, 9]: 182 h and 90.2 h
- Tmax [1, 9]: 48 h
Substance: [pGlu]GSPSGIVTS[αMeL]DVPT[Aib][αMeL]LQKILEQERAEKARQQAK([γGlu-AEEA-εLys-C20 diacid])EAAEILAQV-NH2 [SEQ ID NO: 22, Pyr-GSPSGIVTS αMeL DVPT Aib αMeL LQKILEQERAEKARQQAK(γE-(2-[2-(2-Amino-ethoxy)-ethoxy]-acetyl)-ϵK-CO-(CH2)18-CO2H)EAAEILAQV-NH2]

- EC50 (human CRHR2): 6.9 ± 0.5 pM
- clearance [1, 10]: 11.5 mL/day/kg
- half-life [1, 10]: 113 h
- clearance [1, 11]: 12.8 mL/day/kg
- half-life [1, 11]: 100 h
- half-life ([1]; both sexes, cynomolgus monkey, plasma, sc, 190 nmol/kg, single subcutaneous dose 190 nmol/kg, Mean): 199 h
- CL/F ([1]; both sexes, cynomolgus monkey, plasma, sc, 190 nmol/kg, single subcutaneous dose 190 nmol/kg, Mean, read-out: CL/F (converted)): 12.3 mL/day/kg
- Tmax ([1]; both sexes, cynomolgus monkey, plasma, sc, 190 nmol/kg, single subcutaneous dose 190 nmol/kg, Mean, read-out: Tmax): 24 h
- half-life ([1]; both sexes, cynomolgus monkey, plasma, sc, 190 nmol/kg, single subcutaneous dose 190 nmol/kg, individual animal): 184 h
- CL/F ([1]; both sexes, cynomolgus monkey, plasma, sc, 190 nmol/kg, single subcutaneous dose 190 nmol/kg, individual animal, read-out: CL/F (converted)): 14.4 mL/day/kg
- Tmax ([1]; both sexes, cynomolgus monkey, plasma, sc, 190 nmol/kg, single subcutaneous dose 190 nmol/kg, individual animal, read-out: Tmax): 24 h
- AUC0-inf ([1]; both sexes, cynomolgus monkey, plasma, sc, single subcutaneous dose 190 nmol/kg, Mean, read-out: AUC0-inf): 458 µM·h
- Cmax ([1]; both sexes, cynomolgus monkey, plasma, sc, single subcutaneous dose 190 nmol/kg, Mean, read-out: Cmax): 1610 nM
- AUC0-inf ([1]; both sexes, cynomolgus monkey, plasma, single intravenous dose 190 nmol/kg, Mean, read-out: AUC0-inf): 402 µM·h
- C0 ([1]; both sexes, cynomolgus monkey, plasma, single intravenous dose 190 nmol/kg, Mean, read-out: C0): 3500 nM
- AUC0-inf [1, 12]: 355 µM·h and 449 µM·h
- C0 [1, 12]: 3040 nM and 3960 nM
- CL [1, 12]: 10.1 mL/day/kg
- T1/2 [1, 12]: 126 h
- AUC0-inf [1, 13]: 364 µM·h and 551 µM·h
- CL/F [1, 13]: 10.2 mL/day/kg
- Cmax [1, 13]: 1540 nM and 1680 nM
- T1/2 [1, 13]: 214 h
Substance: {C20 diacid-εLys-AEEA-γGlu}-GSPSIVTS[αMeL]DVPT[Aib][αMeL]LQKILEQERAEKARQQATEAAEILAQV-NH2 [SEQ ID NO: 25]
